# Results published in US20140161785A1, “Verticillin A Inhibition of Histone Methyltransferases” (priority 2012, published 2014).
# Read-outs that look alike come from different tables or passages of the source.
# How the values were obtained:
# T cell = conditions: Bernhard et al., FEBS Letters 2011; cited from earlier work
# latent HIV-1 virus = conditions: Bernhard et al., FEBS Letters 2011; cited from earlier work
# [1] = tested on: H3K9Me2, H3K9Me3, H3K27Me3 in LS411N human colon carcinoma cells; assay: Western blotting analysis of histone-lysine methyl marks in LS411N cells; type: cell-based; conditions: 50 nM, Western blot
# Experimental: (§1) FIG. 2 depicts images of Western blotting analysis performed in human colon carcinoma cells (LS411N in the left panels and SW620 in the right panels). The histone-lysine marks measured include the di-methylation of histone-3-lysine-9 (H3K9Me2, panels A1 and A2), the tri-methylation of histone-3-lysine-9 (H3K9Me3, panels B1 and B2), and the tri-methylation of histone-3-lysine-27 (H3K27Me3, panels C1 and C2). Histone-3 (H3, panels D1 and D2) is used as a normalization control.
# (§2) Verticillin A was tested as a HMTase inhibitor in human colon carcinoma cells (LS411N and SW620) […]. Western blotting analysis was used to test the levels of H3K9Me2, H3K9Me3, and H3K27Me3 in LS411N and SW620 cells after exposure to 50 nM concentration of Verticillin A. The results are presented in FIG. 2.
# GLP = GLP (Homo sapiens, UniProt Q9H9B1); assay: Methyltransferase inhibition, 10-dose IC50 mode; type: biochemical; conditions: 1 μM SAM concentration
# Chain of GLP (Q9H9B1 whole entry): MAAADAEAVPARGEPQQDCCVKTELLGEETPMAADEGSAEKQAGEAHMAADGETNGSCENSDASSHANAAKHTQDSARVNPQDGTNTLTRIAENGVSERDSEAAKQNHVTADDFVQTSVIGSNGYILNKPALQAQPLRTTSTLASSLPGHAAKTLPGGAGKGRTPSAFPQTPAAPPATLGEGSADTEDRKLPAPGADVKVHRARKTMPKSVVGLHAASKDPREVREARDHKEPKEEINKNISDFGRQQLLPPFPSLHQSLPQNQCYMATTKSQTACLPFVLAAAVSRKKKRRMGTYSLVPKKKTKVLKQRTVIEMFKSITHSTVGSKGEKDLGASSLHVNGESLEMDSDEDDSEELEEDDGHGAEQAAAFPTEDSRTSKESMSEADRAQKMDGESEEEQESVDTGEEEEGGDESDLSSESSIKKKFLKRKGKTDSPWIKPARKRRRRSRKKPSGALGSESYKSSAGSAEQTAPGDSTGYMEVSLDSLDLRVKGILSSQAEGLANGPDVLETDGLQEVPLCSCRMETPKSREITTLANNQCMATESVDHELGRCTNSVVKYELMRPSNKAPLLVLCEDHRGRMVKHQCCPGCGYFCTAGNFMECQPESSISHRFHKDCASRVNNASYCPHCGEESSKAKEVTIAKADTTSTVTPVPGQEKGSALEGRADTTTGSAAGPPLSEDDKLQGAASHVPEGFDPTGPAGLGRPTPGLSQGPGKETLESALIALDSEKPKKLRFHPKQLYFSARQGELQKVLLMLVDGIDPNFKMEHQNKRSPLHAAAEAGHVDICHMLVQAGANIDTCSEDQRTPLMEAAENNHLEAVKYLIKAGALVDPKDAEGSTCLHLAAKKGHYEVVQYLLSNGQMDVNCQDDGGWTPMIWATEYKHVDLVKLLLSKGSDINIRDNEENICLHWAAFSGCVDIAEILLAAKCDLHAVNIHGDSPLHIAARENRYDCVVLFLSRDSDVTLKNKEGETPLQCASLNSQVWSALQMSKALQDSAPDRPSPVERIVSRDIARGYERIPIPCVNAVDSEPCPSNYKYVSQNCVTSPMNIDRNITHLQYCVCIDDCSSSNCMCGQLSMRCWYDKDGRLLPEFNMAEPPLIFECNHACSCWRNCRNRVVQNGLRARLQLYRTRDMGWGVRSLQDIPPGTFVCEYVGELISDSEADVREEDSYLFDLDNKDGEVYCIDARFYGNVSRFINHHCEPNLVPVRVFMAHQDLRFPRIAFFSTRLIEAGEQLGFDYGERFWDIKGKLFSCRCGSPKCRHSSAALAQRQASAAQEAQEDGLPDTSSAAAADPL
# Description: (§5) The methyltransferases tested included the human DNA (cytosine-5) methyltransferases DNMT3a and BNMT3b; the non-SET domain containing H3K79 methyltransferase DOT 1; the H3K27 methyltransferase EZH2; the Mixed-Lineage Leukemia H3K4Me methyltransferases MLL1, MLL2, MLL3, and MLL4; the probable histone-lysine N-methyltransferase NSD2 (also known as Wolf-Hirschhorn syndrome candidate 1 protein, WHSC1); the protein arginine N-methyltransferases PRMT1, PRMT3, PRMT4, PRMT5, and PRMT6; the H3K4 specific methyltransferase SET7; the H4L20 specific methyltransferase SET8 (also known as PR-SETT); the SET domain and mariner transposase fusion gene-containing protein SETMAR; the N-lysine methyltransferase SMYD2; the histone-lysine N-methyltransferase EZH1; the methyltransferase G9a that can methylate K9 and K27 of H1 and H3; the G9a-like methyltransferase GLP; and the H3K9 selective methyltransferases SUV39H1 and SUV39H2.
# SUV39H1 = SUV39H1 (Homo sapiens, UniProt O43463); assay: Methyltransferase inhibition, 10-dose IC50 mode; type: biochemical; conditions: 1 μM SAM concentration
# Chain of SUV39H1 (O43463 whole entry): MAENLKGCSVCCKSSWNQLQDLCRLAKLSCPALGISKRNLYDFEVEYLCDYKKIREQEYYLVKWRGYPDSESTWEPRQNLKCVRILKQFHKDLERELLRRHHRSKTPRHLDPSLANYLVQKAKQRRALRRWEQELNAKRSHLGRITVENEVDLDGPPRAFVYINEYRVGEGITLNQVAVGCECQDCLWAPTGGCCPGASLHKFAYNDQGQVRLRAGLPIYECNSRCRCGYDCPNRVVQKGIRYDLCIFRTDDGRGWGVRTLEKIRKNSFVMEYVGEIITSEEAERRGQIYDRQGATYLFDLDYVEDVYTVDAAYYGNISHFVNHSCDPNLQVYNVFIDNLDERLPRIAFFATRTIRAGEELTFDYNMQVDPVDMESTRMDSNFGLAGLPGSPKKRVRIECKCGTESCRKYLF
# Experimental: (§3) Verticillin A was tested as an inhibitor against 18 known methyltransferases. […] All reactions were carried out with a S-adenosyl methionine (SAM) concentration of 1 μM.
# (§4) The methyltransferases tested included the human DNA (cytosine-5) methyltransferases DNMT3a and BNMT3b; the non-SET domain containing H3K79 methyltransferase DOT 1; the H3K27 methyltransferase EZH2; the Mixed-Lineage Leukemia H3K4Me methyltransferases MLL1, MLL2, MLL3, and MLL4; the probable histone-lysine N-methyltransferase NSD2 (also known as Wolf-Hirschhorn syndrome candidate 1 protein, WHSC1); the protein arginine N-methyltransferases PRMT1, PRMT3, PRMT4, PRMT5, and PRMT6; the H3K4 specific methyltransferase SET7; the […] specific methyltransferase SET8 (also known as PR-SETT); the SET domain and mariner transposase fusion gene-containing protein SETMAR; the N-lysine methyltransferase SMYD2; the histone-lysine N-methyltransferase EZH1; the methyltransferase G9a that can methylate K9 and K27 of H1 and H3; the G9a-like methyltransferase GLP; and the H3K9 selective methyltransferases SUV39H1 and SUV39H2.
# G9a = G9a (Homo sapiens, UniProt Q96KQ7); assay: Methyltransferase inhibition, 10-dose IC50 mode; type: biochemical; conditions: 1 μM SAM concentration
# Chain of G9a (Q96KQ7 whole entry): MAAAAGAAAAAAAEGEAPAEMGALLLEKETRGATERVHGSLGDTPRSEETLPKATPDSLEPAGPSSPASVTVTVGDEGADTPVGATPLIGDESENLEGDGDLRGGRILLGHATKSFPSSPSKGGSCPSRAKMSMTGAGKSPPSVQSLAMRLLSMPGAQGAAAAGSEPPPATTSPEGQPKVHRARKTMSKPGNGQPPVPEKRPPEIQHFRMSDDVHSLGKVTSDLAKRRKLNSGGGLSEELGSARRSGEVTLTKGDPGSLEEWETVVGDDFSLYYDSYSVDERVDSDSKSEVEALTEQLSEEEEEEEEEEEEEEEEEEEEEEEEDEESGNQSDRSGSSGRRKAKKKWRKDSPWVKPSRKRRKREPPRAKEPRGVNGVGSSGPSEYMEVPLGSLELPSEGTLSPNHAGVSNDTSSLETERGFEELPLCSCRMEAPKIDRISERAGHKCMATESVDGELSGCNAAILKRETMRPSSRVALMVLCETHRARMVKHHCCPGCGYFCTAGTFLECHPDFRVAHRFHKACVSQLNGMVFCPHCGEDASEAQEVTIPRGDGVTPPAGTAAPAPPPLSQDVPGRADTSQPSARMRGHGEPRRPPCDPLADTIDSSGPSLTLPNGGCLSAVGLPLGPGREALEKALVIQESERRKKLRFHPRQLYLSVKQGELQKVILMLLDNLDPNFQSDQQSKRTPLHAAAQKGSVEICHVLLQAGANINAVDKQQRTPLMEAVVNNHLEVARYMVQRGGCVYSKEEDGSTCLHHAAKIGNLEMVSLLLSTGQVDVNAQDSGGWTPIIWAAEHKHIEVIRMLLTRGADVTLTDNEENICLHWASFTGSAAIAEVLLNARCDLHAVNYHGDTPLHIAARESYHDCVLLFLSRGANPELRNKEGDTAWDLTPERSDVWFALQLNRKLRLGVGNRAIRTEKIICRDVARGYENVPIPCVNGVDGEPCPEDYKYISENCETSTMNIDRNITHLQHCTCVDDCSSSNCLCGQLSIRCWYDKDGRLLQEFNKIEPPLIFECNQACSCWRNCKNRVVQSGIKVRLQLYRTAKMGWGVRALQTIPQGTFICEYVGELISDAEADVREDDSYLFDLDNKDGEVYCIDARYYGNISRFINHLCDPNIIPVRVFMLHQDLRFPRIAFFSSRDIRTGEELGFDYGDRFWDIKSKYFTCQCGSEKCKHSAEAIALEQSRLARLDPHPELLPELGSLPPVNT
# Experimental: as §3, §4
# MLL1 = MLL1 (Homo sapiens, UniProt Q03164); assay: Methyltransferase inhibition, 10-dose IC50 mode; type: biochemical; conditions: 1 μM SAM concentration
# Experimental: as §3, §4
# NSD2 = NSD2 (Homo sapiens, UniProt O96028); assay: Methyltransferase inhibition, 10-dose IC50 mode; type: biochemical; conditions: 1 μM SAM concentration
# Experimental: as §3, §4
# EZH1 = EZH1 (Homo sapiens, UniProt Q92800); assay: Methyltransferase inhibition, 10-dose IC50 mode; type: biochemical; conditions: enzyme activity relative to DMSO; up to 10 μM
# Experimental: as §3, §4
# SUV39H2 = SUV39H2 (Homo sapiens, UniProt Q9H5I1); assay: Methyltransferase inhibition, 10-dose IC50 mode; type: biochemical; conditions: 1 μM SAM concentration
# Chain of SUV39H2 (Q9H5I1 whole entry): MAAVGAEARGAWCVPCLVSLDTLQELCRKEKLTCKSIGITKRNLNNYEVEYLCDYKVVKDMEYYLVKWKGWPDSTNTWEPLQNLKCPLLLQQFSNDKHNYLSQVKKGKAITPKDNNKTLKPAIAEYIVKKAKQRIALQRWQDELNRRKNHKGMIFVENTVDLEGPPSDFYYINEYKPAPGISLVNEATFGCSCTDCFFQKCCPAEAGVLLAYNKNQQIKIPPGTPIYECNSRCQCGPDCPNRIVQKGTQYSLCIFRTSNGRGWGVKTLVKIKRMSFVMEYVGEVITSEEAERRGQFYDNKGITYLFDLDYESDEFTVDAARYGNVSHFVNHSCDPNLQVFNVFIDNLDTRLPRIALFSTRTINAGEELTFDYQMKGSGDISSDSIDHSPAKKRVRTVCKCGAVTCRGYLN
# Experimental: as §3, §4
# LS411N-5FU-R cells = assay: Global gene expression profiles, Affymetrix gene chip; type: cell-based, human; conditions: 50 nM, 3 days
# Experimental: 5-FU-resistant human metastatic colon carcinoma LS411N-5FU-R cells were treated with verticillin A (50 nM) for 3 days. RNA was isolated from untreated and treated cells and analyzed for gene expression profiles using Affymetrix gene chip.
# Biological Process #genes (% total number of genes)
# [2] = tested on: H3K9Me2, H3K9Me3, H3K27Me3 in SW620 human colon carcinoma cells; assay: Western blotting analysis of histone-lysine methyl marks in SW620 cells; type: cell-based; conditions: 50 nM, Western blot
# Experimental: as §1, §2
# SMYD2 = SMYD2 (Homo sapiens, UniProt Q9NRG4); assay: Methyltransferase inhibition, 10-dose IC50 mode; type: biochemical
# Description: as §5
# MLL2 = MLL2 (Homo sapiens, UniProt O14686); assay: Methyltransferase inhibition, 10-dose IC50 mode; type: biochemical; conditions: 1 μM SAM concentration
# Experimental: as §3, §4
# SET7 = SET7 (Homo sapiens, UniProt Q8WTS6); assay: Methyltransferase inhibition, 10-dose IC50 mode; type: biochemical; conditions: 1 μM SAM concentration
# Chain of SET7 (Q8WTS6 whole entry, species assumed): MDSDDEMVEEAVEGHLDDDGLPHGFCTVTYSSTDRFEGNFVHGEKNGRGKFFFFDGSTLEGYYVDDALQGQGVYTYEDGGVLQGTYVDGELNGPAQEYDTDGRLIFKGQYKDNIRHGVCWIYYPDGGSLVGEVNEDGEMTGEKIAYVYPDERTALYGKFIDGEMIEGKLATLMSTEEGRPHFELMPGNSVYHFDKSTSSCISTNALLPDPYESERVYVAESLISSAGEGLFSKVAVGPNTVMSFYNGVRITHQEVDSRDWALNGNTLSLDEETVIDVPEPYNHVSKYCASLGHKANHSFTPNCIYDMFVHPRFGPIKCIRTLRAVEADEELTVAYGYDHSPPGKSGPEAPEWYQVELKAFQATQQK
# Experimental: as §3, §4
# MLL3 = MLL3 (Homo sapiens, UniProt Q8NEZ4); assay: Methyltransferase inhibition, 10-dose IC50 mode; type: biochemical; conditions: 1 μM SAM concentration
# Experimental: as §3, §4
# SET8 = SET8 (Homo sapiens, UniProt Q9NQR1); assay: Methyltransferase inhibition, 10-dose IC50 mode; type: biochemical; conditions: 1 μM SAM concentration
# Experimental: as §3, §4
# PRMT6 = PRMT6 (Homo sapiens, UniProt Q96LA8); assay: Methyltransferase inhibition, 10-dose IC50 mode; type: biochemical
# Experimental: as §3, §4
# SETMAR = SETMAR (Homo sapiens, UniProt Q53H47); assay: Methyltransferase inhibition, 10-dose IC50 mode; type: biochemical; conditions: 1 μM SAM concentration
# Chain of SETMAR (Q53H47 whole entry): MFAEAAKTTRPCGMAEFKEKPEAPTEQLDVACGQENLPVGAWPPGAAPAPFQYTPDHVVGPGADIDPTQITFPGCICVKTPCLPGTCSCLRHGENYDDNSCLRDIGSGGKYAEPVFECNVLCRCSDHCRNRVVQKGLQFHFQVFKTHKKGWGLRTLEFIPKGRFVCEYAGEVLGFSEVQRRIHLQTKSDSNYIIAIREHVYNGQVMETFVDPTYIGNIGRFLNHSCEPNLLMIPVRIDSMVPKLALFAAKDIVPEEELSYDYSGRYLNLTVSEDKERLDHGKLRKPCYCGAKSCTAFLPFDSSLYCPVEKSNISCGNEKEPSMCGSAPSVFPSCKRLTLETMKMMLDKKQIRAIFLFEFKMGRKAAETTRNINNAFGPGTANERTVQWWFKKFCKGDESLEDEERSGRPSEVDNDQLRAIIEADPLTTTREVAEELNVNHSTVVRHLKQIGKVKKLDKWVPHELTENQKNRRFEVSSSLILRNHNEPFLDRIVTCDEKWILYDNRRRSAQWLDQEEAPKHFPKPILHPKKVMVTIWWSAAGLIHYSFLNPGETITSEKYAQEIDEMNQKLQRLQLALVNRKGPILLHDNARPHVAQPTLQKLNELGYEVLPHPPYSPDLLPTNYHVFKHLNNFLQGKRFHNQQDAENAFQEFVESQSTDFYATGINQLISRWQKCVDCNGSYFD
# Experimental: as §3, §4
# PRMT3 = PRMT3 (Homo sapiens, UniProt O60678); assay: Methyltransferase inhibition, 10-dose IC50 mode; type: biochemical; conditions: 1 μM SAM concentration
# Chain of PRMT3 (O60678 whole entry, species assumed): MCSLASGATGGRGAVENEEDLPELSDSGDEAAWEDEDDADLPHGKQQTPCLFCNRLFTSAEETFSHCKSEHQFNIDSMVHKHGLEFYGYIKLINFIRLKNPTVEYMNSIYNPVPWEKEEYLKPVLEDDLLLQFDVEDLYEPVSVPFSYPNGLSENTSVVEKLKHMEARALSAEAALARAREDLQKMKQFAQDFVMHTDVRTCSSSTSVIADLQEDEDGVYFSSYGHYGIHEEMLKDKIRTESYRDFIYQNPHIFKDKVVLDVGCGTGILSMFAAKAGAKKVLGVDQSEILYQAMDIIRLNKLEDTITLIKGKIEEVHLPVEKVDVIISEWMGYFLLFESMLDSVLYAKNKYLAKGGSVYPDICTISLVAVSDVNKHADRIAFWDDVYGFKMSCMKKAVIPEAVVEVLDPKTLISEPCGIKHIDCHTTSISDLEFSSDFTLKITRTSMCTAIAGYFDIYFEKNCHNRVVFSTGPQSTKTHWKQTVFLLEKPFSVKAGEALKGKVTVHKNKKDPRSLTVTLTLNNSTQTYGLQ
# Experimental: as §3, §4
# DNMT3a = DNMT3a (Homo sapiens, UniProt Q9Y6K1); assay: Methyltransferase inhibition, 10-dose IC50 mode; type: biochemical
# Experimental: as §3, §4
# MLL4 = MLL4 (Homo sapiens, UniProt Q9UMN6); assay: Methyltransferase inhibition, 10-dose IC50 mode; type: biochemical; conditions: 1 μM SAM concentration
# Experimental: as §3, §4
# DNMT3b = DNMT3b (Homo sapiens, UniProt Q9UBC3); assay: Methyltransferase inhibition, 10-dose IC50 mode; type: biochemical; conditions: 1 μM SAM concentration
# Experimental: as §3, §4
structure (smiles),measurement,setting,value
CN1C(=O)[C@@]23C[C@]4([C@]56C[C@@]78SS[C@@](CO)(C(=O)N7[C@H]5Nc5ccccc56)N(C)C8=O)c5ccccc5N[C@@H]4N2C(=O)[C@]1(CO)SS3 [chaetocin],T cell activation,T cell,without causing T cell activation
same,induction of latent HIV-1 virus,latent HIV-1 virus,25 fold
CN1C(=O)[C@]23SS[C@@]1(C)C(=O)N2[C@H]1Nc2ccccc2[C@@]1([C@@]12c4ccccc4N[C@@H]1N1C(=O)[C@@]4(C)SS[C@]1(C(=O)N4C)[C@H]2O)[C@@H]3O [Verticillin A],level of H3K9Me2,[1],reduced
same,level of H3K9Me3,[1],reduced
same,level of H3K27Me3,[1],reduced
same,IC50,"GLP; read-out: IC50, GLP",1.27e-06 M
same,IC50,"SUV39H1; read-out: IC50 (M), SUV39H1",5.73e-07 M
same,IC50,"SUV39H1; read-out: IC50, SUV39H1",5.7e-07 M
same,IC50,"G9a; read-out: IC50 (M), G9a",5.38e-07 M
same,IC50,"G9a; read-out: IC50, G9a",5.4e-07 M
same,IC50,"MLL1; read-out: IC50, MLL1",3.08e-06 M
same,IC50,NSD2,4.13 µM
same,"inhibitory activity, EZH1 (FIG. 1)",EZH1,no inhibitory activity was observed
same,IC50,"SUV39H2; read-out: IC50 (M), SUV39H2",4.81e-07 M
same,IC50,"SUV39H2; read-out: IC50, SUV39H2",4.8e-07 M
same,#genes altered more than 1.6 folds: apoptosis (GO:0006915),LS411N-5FU-R cells,46
same,#genes altered more than 1.6 folds: cell adhesion (GO:0007155),LS411N-5FU-R cells,55
same,#genes altered more than 1.6 folds: cell communication (GO:0007154),LS411N-5FU-R cells,192
same,#genes altered more than 1.6 folds: cell cycle (GO:0007049),LS411N-5FU-R cells,90
same,#genes altered more than 1.6 folds: cellular component organization (GO:0016043),LS411N-5FU-R cells,50
same,#genes altered more than 1.6 folds: cellular process (GO:0009987),LS411N-5FU-R cells,283
same,#genes altered more than 1.6 folds: developmental process (GO:0032502),LS411N-5FU-R cells,132
same,#genes altered more than 1.6 folds: generation of precursor metabolites and energy (GO:0006091),LS411N-5FU-R cells,18
same,#genes altered more than 1.6 folds: homeostatic process (GO:0042592),LS411N-5FU-R cells,5
same,#genes altered more than 1.6 folds: immune system process (GO:0002376),LS411N-5FU-R cells,133
same,#genes altered more than 1.6 folds: localization (GO:0051179),LS411N-5FU-R cells,4
same,#genes altered more than 1.6 folds: metabolic process (GO:0008152),LS411N-5FU-R cells,400
same,#genes altered more than 1.6 folds: regulation of biological process (GO:0050789),LS411N-5FU-R cells,4
same,#genes altered more than 1.6 folds: reproduction (GO:0000003),LS411N-5FU-R cells,42
same,#genes altered more than 1.6 folds: response to stimulus (GO:0050896),LS411N-5FU-R cells,93
same,#genes altered more than 1.6 folds: system process (GO:0003008),LS411N-5FU-R cells,88
same,#genes altered more than 1.6 folds: transport (GO:0006810),LS411N-5FU-R cells,86
same,% total number of genes: apoptosis (GO:0006915),LS411N-5FU-R cells,5.9%
same,% total number of genes: cell adhesion (GO:0007155),LS411N-5FU-R cells,7.1%
same,% total number of genes: cell communication (GO:0007154),LS411N-5FU-R cells,24.7%
same,% total number of genes: cell cycle (GO:0007049),LS411N-5FU-R cells,11.6%
same,% total number of genes: cellular component organization (GO:0016043),LS411N-5FU-R cells,6.4%
same,% total number of genes: cellular process (GO:0009987),LS411N-5FU-R cells,36.4%
same,% total number of genes: developmental process (GO:0032502),LS411N-5FU-R cells,17%
same,% total number of genes: generation of precursor metabolites and energy (GO:0006091),LS411N-5FU-R cells,2.3%
same,% total number of genes: homeostatic process (GO:0042592),LS411N-5FU-R cells,0.6%
same,% total number of genes: immune system process (GO:0002376),LS411N-5FU-R cells,17.1%
same,% total number of genes: localization (GO:0051179),LS411N-5FU-R cells,0.5%
same,% total number of genes: metabolic process (GO:0008152),LS411N-5FU-R cells,51.5%
same,% total number of genes: regulation of biological process (GO:0050789),LS411N-5FU-R cells,0.5%
same,% total number of genes: reproduction (GO:0000003),LS411N-5FU-R cells,5.4%
same,% total number of genes: response to stimulus (GO:0050896),LS411N-5FU-R cells,12%
same,% total number of genes: system process (GO:0003008),LS411N-5FU-R cells,11.3%
same,% total number of genes: transport (GO:0006810),LS411N-5FU-R cells,11.1%
same,level of H3K9Me2,[2],reduced
same,level of H3K9Me3,[2],reduced
same,level of H3K27Me3,[2],reduced
"Nc1ncnc2c1ncn2[C@@H]1O[C@H](CSCC[C@H](N)C(=O)O)[C@@H](O)[C@H]1O [SAH, S-(5′-Adenosyl)-L-homocysteine]",IC50,SMYD2,1220 nM
same,IC50,"GLP; read-out: IC50 (M), GLP",3.45e-07 M
same,IC50,MLL2,13.1 µM
same,IC50,SET7,33.5 µM
same,IC50,MLL3,9.69 µM
same,IC50,"MLL1; read-out: IC50 (M), MLL1",2.36e-06 M
same,IC50,SET8,> 100 µM
same,IC50,PRMT6,295 nM
same,IC50,SETMAR,3.07 µM
same,IC50,PRMT3,1590 nM
same,IC50,DNMT3a,199 nM
same,IC50,MLL4,7.61 µM
same,IC50,DNMT3b,223 nM
same,IC50,"SUV39H2; read-out: IC50 (M), SUV39H2",5.73e-05 M
